Source: publication doi:10.1101/2025.11.20.689572v1 (biorxiv, 2025)
Where two headings read alike, the source gives them in different places.

Key:
H2 = molecular target: T1, H2 (Homo sapiens, UniProt P25021); assay: competitive radioligand binding, HEK293 membranes
T1 construct: gene HRH2; full-length receptor; HEK293 cell membranes
Source text: competitive radioligand binding, HEK293 membranes on H2

β1 = molecular target: T2, β1 (Homo sapiens, UniProt P08588); assay: biochemical; parameters: species or system HEK293; PDSP competitive radioligand binding, membranes of transfected HEK293 cells, filtration, Ki by Cheng-Prusoff
T2 construct: gene ADRB1
Description: (§1) Competitive radioligand binding assays were performed at the NIMH Psychoactive Drug Screening Program (PDSP) using membranes from transiently transfected HEK293 cells in 96-well format as described. Complete, target-specific protocols are available at the PDSP website (https://pdsp.unc.edu/pdspweb/?site=assays). Primary screenings were run at a single test concentration (10 µM) in quadruplicate. […] Secondary assays were conducted in triplicate using 12-point serial dilutions (0, 0.1, 0.3, 1, 3, 10, 30, 100, 300 nM; 1, 3, 10 µM). Assays were performed in a final volume of 125 µL per well in binding buffer, as detailed in the NIMH PDSP protocols (e.g., standard binding buffer: 50 mM Tris-HCl, pH 7.4, 10 mM MgCl2, 0.1 mM EDTA). Radioligand concentrations were chosen near the target-specific Kd. Total and nonspecific binding were defined in the absence and presence, respectively, of 10 µM reference ligand specific for each receptor. After 90 min incubation at room temperature, reactions were terminated by vacuum filtration onto 0.3% polyethyleneimine-pretreated UniFilter-96 GF/C Microplates using a FilterMate harvester, washed three times with ice-cold buffer (50 mM Tris HCl, pH 7.4), dried, treated with MicroScint-O [compound left out] scintillation cocktails, and counted on a MicroBeta counter. Equilibrium inhibition constants (Ki) were calculated from fitted IC50 values using the Cheng–Prusoff equation [14] with the assay-specific radioligand concentration and Kd. TABLE 1. […] Results represented mean ± SEM from a minimum of 3 independent assays, each in triplicate. ND=not determined.

SERT = molecular target: T3, SERT (Homo sapiens, UniProt P31645); assay: biochemical; parameters: species or system HEK293; PDSP competitive radioligand binding, membranes of transfected HEK293 cells, filtration, Ki by Cheng-Prusoff
T3 construct: gene SLC6A4
Description: as §1

MOR = molecular target: T4, MOR (Homo sapiens, UniProt P35372); assay: biochemical; parameters: species or system HEK293; PDSP competitive radioligand binding, membranes of transfected HEK293 cells, filtration, Ki by Cheng-Prusoff
T4 construct: gene OPRM1
Description: as §1

α1D = molecular target: T5, α1D (Homo sapiens, UniProt P25100); assay: biochemical; parameters: species or system HEK293; PDSP competitive radioligand binding, membranes of transfected HEK293 cells, filtration, Ki by Cheng-Prusoff
T5 construct: gene ADRA1D
Description: as §1

DRD4 = molecular target: T6, DRD4 (Homo sapiens, UniProt P21917); assay: biochemical; parameters: species or system HEK293; PDSP competitive radioligand binding, membranes of transfected HEK293 cells, filtration, Ki by Cheng-Prusoff
T6 sequence (P21917 1-419): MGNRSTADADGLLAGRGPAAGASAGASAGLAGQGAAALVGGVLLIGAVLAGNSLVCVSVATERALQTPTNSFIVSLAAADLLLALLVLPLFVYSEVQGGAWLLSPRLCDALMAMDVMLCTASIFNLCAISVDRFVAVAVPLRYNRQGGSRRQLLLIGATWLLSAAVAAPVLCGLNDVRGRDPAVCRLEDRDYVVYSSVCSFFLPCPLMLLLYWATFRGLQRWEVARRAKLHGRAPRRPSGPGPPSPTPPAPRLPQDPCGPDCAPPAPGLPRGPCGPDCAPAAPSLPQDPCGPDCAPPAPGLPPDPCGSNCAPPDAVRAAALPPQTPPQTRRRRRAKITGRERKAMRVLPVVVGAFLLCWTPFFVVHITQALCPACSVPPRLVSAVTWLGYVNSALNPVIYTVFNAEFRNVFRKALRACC
Description: as §1

DRD2 = DRD2 (Homo sapiens, UniProt P14416); assay: biochemical; parameters: species or system HEK293; PDSP competitive radioligand binding, membranes of transfected HEK293 cells, filtration, Ki by Cheng-Prusoff
Description: as §1

DOR = molecular target: T7, DOR (Homo sapiens, UniProt P41143); assay: biochemical; parameters: species or system HEK293; PDSP competitive radioligand binding, membranes of transfected HEK293 cells, filtration, Ki by Cheng-Prusoff
T7 construct: gene OPRD1
Description: as §1

KOR = molecular target: T8, KOR (Homo sapiens, UniProt P41145); assay: competitive radioligand binding, HEK293 membranes
T8 construct: gene OPRK1; full-length receptor; HEK293 cell membranes
Source text: competitive radioligand binding, HEK293 membranes on KOR

α2C = molecular target: T9, α2C (Homo sapiens, UniProt P18825); assay: competitive radioligand binding, HEK293 membranes
T9 construct: gene ADRA2C; full-length receptor; HEK293 cell membranes
Source text: competitive radioligand binding, HEK293 membranes on α2C

M2 = molecular target: T10, M2 (Homo sapiens, UniProt P08172); assay: TRUPATH BRET2 G protein dissociation, HEK293; type: cell-based; settings: HBSS, […] HEPES pH […] °C; agonist mode
T10 construct: gene CHRM2; full-length receptor; HEK293 with TRUPATH sensors (function)
T10 sequence (P08172 1-466): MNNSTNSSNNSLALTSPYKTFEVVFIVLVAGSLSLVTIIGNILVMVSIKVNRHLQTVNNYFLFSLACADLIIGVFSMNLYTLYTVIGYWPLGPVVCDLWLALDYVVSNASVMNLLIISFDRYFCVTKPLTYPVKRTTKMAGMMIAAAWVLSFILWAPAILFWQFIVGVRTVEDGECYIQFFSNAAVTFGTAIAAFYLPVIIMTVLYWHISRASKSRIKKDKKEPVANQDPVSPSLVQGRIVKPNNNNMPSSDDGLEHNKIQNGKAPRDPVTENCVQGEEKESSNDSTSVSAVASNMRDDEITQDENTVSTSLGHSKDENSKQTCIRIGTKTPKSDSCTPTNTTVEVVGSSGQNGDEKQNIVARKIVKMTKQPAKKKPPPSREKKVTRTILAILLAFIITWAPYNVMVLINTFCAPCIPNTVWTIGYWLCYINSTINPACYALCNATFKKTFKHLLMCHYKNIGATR

[1] = read-out: N-desmethyl-xanomeline (PDSP) pKi (converted)

CCCCCCOc1nsnc1C1=CCCNC1 [N-desmethylxanomeline] was tested, and the Ki (H2) was 1.02 µM, the Ki (β1; [1]) was 8.71 µM and the Ki (SERT; [1]) was 1.62 µM. It also gave a Ki (MOR; [1]) of 7.94 µM, a Ki (α1D; [1]) of 3.31 µM and a Ki (DRD4; [1]) of over 10 µM. For the same compound, the Ki (DRD2; [1]) was 6.61 µM, the Ki (DOR; [1]) was over 10 µM and the Ki (KOR) was 1.02 µM. The Ki (α2C) was 0.209 µM and the EC50 (M2) was “differential activation of M1-M5 muscarinic receptor transducers”.
In the case of CCCCCCOc1nsnc1C1=CCCN(C)C1 [Xanomeline], the Ki (H2) is reported as 0.347 µM, the Ki (β1) is reported as over 10 µM and the Ki (SERT) is reported as over 10 µM. It also gave a Ki (MOR) of over 10 µM, a Ki (α1D) of over 10 µM and a Ki (DRD4) of 2 µM. It also gave a Ki (DRD2) of over 10 µM, a Ki (DOR) of over 10 µM and a Ki (KOR) of 1.78 µM. The Ki (α2C) was 0.158 µM and the EC50 (M2) was “differential activation of M1-M5 muscarinic receptor transducers”.
